From patent publication US20200325177A1, “METHODS OF MAKING STREPTOGRAMIN COMPOSITIONS AND THE USE THEREOF” (THE REGENTS OF THE UNIVERSITY OF CALIFORNIA, priority 2017, published 2020) come the findings set out here.

Common to all, as to format: cell-based
One test concerns E. faecium VRE; vanA. Briefly: MIC, Gram-positive bacteria: E. faecium VRE; vanA. The conditions noted are these: Enterococcus faecium, column 3, read-out: Minimal Inhibitory Concentration (MIC) E. faecium VRE.
Another test has as its system H. influenzae ATCC 49247. Briefly: MIC, Gram-negative bacteria: H. influenzae ATCC 49247. To be noted: Haemophilus influenzae, ATCC49247, read-out: Minimal Inhibitory Concentration (MIC) H. influenzae ATCC 49247.
For another test, the system named is E. faecalis. As to the kind of experiment: MIC, Gram-positive bacteria: E. faecalis. The conditions noted are these: Enterococcus faecalis, column 1, read-out: Minimal Inhibitory Concentration (MIC) E. faecalis.
For a further test, the system named is P. aeruginosa ATCC 27853. Briefly: MIC, Gram-negative bacteria: P. aeruginosa ATCC 27853. To be noted: Pseudomonas aeruginosa, ATCC27853, read-out: Minimal Inhibitory Concentration (MIC) P. aeruginosa ATCC 27853.
In a further test the test system is E. faecium ATCC 35667. As to the kind of experiment: MIC, Gram-positive bacteria: E. faecium ATCC 35667. The conditions noted are these: Enterococcus faecium, ATCC35667, column 2, read-out: Minimal Inhibitory Concentration (MIC) E. faecium ATCC 35667.
The test system of test [1] is S. aureus Vat A streptogramin. As to the kind of experiment: MIC, Gram-positive bacteria: S. aureus Vat A streptogramin. The conditions noted are these: Staphylococcus aureus; Gram-positive; column 5; read-out: Minimal Inhibitory Concentration (MIC) S. aureus Vat A streptogramin.
A further test concerns S. pneumoniae. Briefly: MIC, Gram-positive bacteria: S. pneumoniae. The conditions noted are these: Streptococcus pneumoniae, column 10, read-out: Minimal Inhibitory Concentration (MIC) S. pneumoniae.
Test [2] has as its system P. aeruginosa MDR clinical isolate. Briefly: MIC, Gram-negative bacteria: P. aeruginosa MDR clinical isolate. To be noted: Pseudomonas aeruginosa, read-out: Minimal Inhibitory Concentration (MIC) P. aeruginosa MDR clinical isolate.
The subject of the next test is Gram-Negative Organisms. Briefly: microbe, parasite or virus in culture.
For test [3], the system named is S. aureus Linezolid-resistant; cfr. Briefly: MIC, Gram-positive bacteria: S. aureus Linezolid-resistant; cfr. The conditions noted are these: Staphylococcus aureus, column 9, read-out: Minimal Inhibitory Concentration (MIC) S. aureus Linezolid-resistant.
Test [4] concerns K. pneumoniae multidrug-resistant. Briefly: MIC, Gram-negative bacteria: K. pneumoniae multidrug-resistant. To be noted: Klebsiella pneumoniae, read-out: Minimal Inhibitory Concentration (MIC) K. pneumoniae multidrug-resistant.
The next test deals with S. aureus. Briefly: MIC, Gram-positive bacteria: S. aureus (strains not named). To be noted: Staphylococcus aureus, read-out: Minimal Inhibitory Concentration (MIC) S. aureus.
The mark [5] stands for this setting: Acinetobacter baumannii, ATCC19606, read-out: Minimal Inhibitory Concentration (MIC), A. baumannii ATCC 19606.
[6] abbreviates: Escherichia coli, ATCC25922, read-out: Minimal Inhibitory Concentration (MIC), E. coli ATCC 25922.
Where [7] appears, read: Escherichia coli, read-out: Minimal Inhibitory Concentration (MIC), E. coli BAS2006, OMP C, OMP F.
Setting [8] is: Escherichia coli, read-out: Minimal Inhibitory Concentration (MIC), E. coli olC efflux defective.
The mark [9] stands for this setting: Escherichia coli, read-out: Minimal Inhibitory Concentration (MIC), E. coli permeability mutant BAS1314, IMP4213ZAB::TN10.
Where [10] appears, read: Escherichia coli, read-out: Minimal Inhibitory Concentration (MIC), E. coli ΔompC768, KanR insert.
[11] abbreviates: Klebsiella pneumoniae, ATCC43816, read-out: Minimal Inhibitory Concentration (MIC), K. pneumoniae ATCC 43816.
[12] abbreviates: first unnamed S. aureus column (c4).
[13] abbreviates: fourth unnamed S. aureus column (c8).
[14] abbreviates: second unnamed S. aureus column (c6).
The mark [15] stands for this setting: third unnamed S. aureus column (c7).

SMILES strings stand for the structures. Converted amounts (≈) assume the structure as drawn. Read-outs that look alike come from different tables or passages of the source.

In the case of `CC1=C\[C@@H](O)CC(=O)Cc2nc(co2)C(=O)N2CCC[C@@H]2C(=O)O[C@H]([C@H](C)CF)[C@H](C)/C=C/C(=O)NC\C=C\1` [SA0110273], the MIC in the test on E. faecium VRE; vanA was 64 µg/mL (≈ 117 µM); in the test on H. influenzae ATCC 49247 it was 8 µg/mL (≈ 14.7 µM); in the test with E. faecalis it was over 64 µg/mL; with P. aeruginosa ATCC 27853, over 64 µg/mL; with E. faecium ATCC 35667 it was 16 µg/mL (≈ 29.3 µM); in test [1], over 64 µg/mL. Further, the MIC with S. pneumoniae was 16 µg/mL (≈ 29.3 µM); in test [2] it was over 64 µg/mL; in the test on Gram-Negative Organisms (setting [5]) it was over 64 µg/mL; with Gram-Negative Organisms (setting [6]), over 64 µg/mL; with Gram-Negative Organisms (setting [7]) it was 16 µg/mL (≈ 29.3 µM); with Gram-Negative Organisms (setting [8]), 4 µg/mL (≈ 7.33 µM). For the same compound, the MIC with Gram-Negative Organisms (setting [9]) is 8 µg/mL (≈ 14.7 µM); in the test on Gram-Negative Organisms (setting [10]), over 64 µg/mL; with Gram-Negative Organisms (setting [11]) it was over 64 µg/mL; in test [3], over 64 µg/mL; in test [4], over 64 µg/mL; in the test on S. aureus (setting [12]) it was 64 µg/mL (≈ 117 µM). Moreover, the MIC with S. aureus (setting [13]) was found to be 32 µg/mL (≈ 58.7 µM); with S. aureus (setting [14]), 64 µg/mL (≈ 117 µM); in the test on S. aureus (setting [15]), 64 µg/mL (≈ 117 µM).
With `CC1=C\[C@@H](O)CC(=O)Cc2nc(co2)C(=O)N2CCC[C@@H]2C(=O)O[C@H]([C@H](C)COC(=O)Nc2cnccn2)[C@H](C)/C=C/C(=O)NC\C=C\1` [SA0110215], the MIC in the test on E. faecium VRE; vanA is over 64 µg/mL; with H. influenzae ATCC 49247, 16 µg/mL (≈ 24.1 µM); with E. faecalis, over 64 µg/mL; in the test on P. aeruginosa ATCC 27853 it was over 64 µg/mL; with E. faecium ATCC 35667 it was 64 µg/mL (≈ 96.3 µM); in test [1] it was over 64 µg/mL. Also, the MIC in the test with S. pneumoniae is 64 µg/mL (≈ 96.3 µM); in [2], over 64 µg/mL; in the test on Gram-Negative Organisms (setting [5]), over 64 µg/mL; in the test on Gram-Negative Organisms (setting [6]) it was over 64 µg/mL; in the test on Gram-Negative Organisms (setting [7]), over 64 µg/mL; with Gram-Negative Organisms (setting [8]) it was 8 µg/mL (≈ 12 µM). Further, the MIC in the test with Gram-Negative Organisms (setting [9]) was 16 µg/mL (≈ 24.1 µM); with Gram-Negative Organisms (setting [10]), over 64 µg/mL; with Gram-Negative Organisms (setting [11]), over 64 µg/mL; in test [3], over 64 µg/mL; in test [4], over 64 µg/mL; in the test on S. aureus (setting [12]) it was over 64 µg/mL. In addition, the MIC with S. aureus (setting [13]), with S. aureus (setting [14]) and with S. aureus (setting [15]) was over 64 µg/mL each time.
For `CC1=C\[C@@H](O)CC(=O)Cc2nc(co2)C(=O)N2CCC[C@@H]2C(=O)O[C@H]([C@@H](C)CN2CCOCC2)[C@H](C)/C=C/C(=O)NC\C=C\1` [SA0110161], the MIC (in the test on E. faecium VRE; vanA; with H. influenzae ATCC 49247; in the test with E. faecalis; with P. aeruginosa ATCC 27853; in the test on E. faecium ATCC 35667; in test [1]) was over 64 µg/mL throughout. Besides, the MIC (in the test with S. pneumoniae; in test [2]; in the test on Gram-Negative Organisms (setting [5]); with Gram-Negative Organisms (setting [6]); in the test with Gram-Negative Organisms (setting [7]); in the test on Gram-Negative Organisms (setting [8])) was over 64 µg/mL throughout. In addition, the MIC (in the test with Gram-Negative Organisms (setting [9]); in the test with Gram-Negative Organisms (setting [10]); in the test with Gram-Negative Organisms (setting [11]); in [3]; in test [4]; in the test on S. aureus (setting [12])) was over 64 µg/mL throughout. The MIC in the test on S. aureus (setting [13]), with S. aureus (setting [14]) and in the test on S. aureus (setting [15]) was over 64 µg/mL each time.
Take `CC1=C\[C@@H](O)CC(=O)Cc2nc(co2)C(=O)N2CCC[C@@H]2C(=O)O[C@H]([C@H](C)COC(=O)Nc2ccc(Br)nc2)[C@H](C)/C=C/C(=O)NC\C=C\1` [SA0110209]: the MIC with E. faecium VRE; vanA is over 64 µg/mL; in the test on H. influenzae ATCC 49247, 8 µg/mL (≈ 10.8 µM); in the test on E. faecalis, over 64 µg/mL; in the test on P. aeruginosa ATCC 27853, over 64 µg/mL; with E. faecium ATCC 35667 it was 16 µg/mL (≈ 21.5 µM); in [1] it was over 64 µg/mL. Besides, the MIC in the test on S. pneumoniae was 16 µg/mL (≈ 21.5 µM); in [2], over 64 µg/mL; with Gram-Negative Organisms (setting [5]), over 64 µg/mL; in the test on Gram-Negative Organisms (setting [6]), over 64 µg/mL; in the test on Gram-Negative Organisms (setting [7]), over 64 µg/mL; with Gram-Negative Organisms (setting [8]), 2 µg/mL (≈ 2.69 µM). Further, the MIC in the test with Gram-Negative Organisms (setting [9]) is 2 µg/mL (≈ 2.69 µM); in the test with Gram-Negative Organisms (setting [10]) it was over 64 µg/mL; in the test on Gram-Negative Organisms (setting [11]), over 64 µg/mL; in test [3] it was over 64 µg/mL; in test [4] it was over 64 µg/mL; in the test on S. aureus (setting [12]) it was 16 µg/mL (≈ 21.5 µM). For the same compound, the results for the MIC with S. aureus (setting [13]), in the test with S. aureus (setting [14]) and in the test on S. aureus (setting [15]) were 16 µg/mL (≈ 21.5 µM), 16 µg/mL (≈ 21.5 µM) and over 64 µg/mL, respectively.
